Data: patent US20250319115A1, “Compositions and Methods for Modulating Cytokines” (Flagship Pioneering Innovations VII, LLC, priority 2022, published 2025)

What was measured:
IL-4 signaling pathway = experiment: HEK-Blue IL-4 SEAP reporter assay; format: cell-based
Protocol: The effects of putative inhibitors on pro-inflammatory cytokine pathways are assessed using HEK-Blue cells engineered for the detection of bioactive cytokines via activation of JAK/STAT pathways and subsequent expression of the SEAP reporter gene. Cells are treated with their relevant cytokines+/−peptides or control antibodies, and 20 hours after treatment activation of the relevant cytokine receptor is determined via SEAP expression through mixing cell supernatants with a Quanti-Blue colorimetric reagent and measuring optical density at 600 nm.
Reporter lines HEK-Blue TL-4/TL-15/IFN-alpha were cultured in DMEM with GlutaMAX and 10% HI FBS (Gibco). Cells were seeded into black 96-well optical clear flat-bottomed PhenoPlates at densities of 25000 cells/well and 100 uL/well and allowed to rest overnight in a 37 C incubator with 5% CO2. After 24 hours, cells were treated with 10 μL of their relevant cytokines (StemCell Technologies) at the previously determined EC75 for activation (1.164 ng/mL for HEK-Blue IL-4, 2.26 ng/mL for HEK-Blue IL-15, and 0.456 ng/mL for HEK-Blue IFN-alpha), with or without 10 μL of peptides (5 uM final concentration) or control antibodies (1 ug/well). Cells were kept overnight in a 37 C incubator with 5% C02.
20-22 hours after treatment, 20 μL of the cell supernatants were collected and transferred to 96-well white flat opaque-bottom plates (Costar) and each sample was mixed with 180 μL of Quanti-Blue reagent. Colorimetric reactions were allowed to develop in a 37 C incubator with 5% C02 for a certain duration of time (3 hours for HEK-Blue IL-4, 2 hours for HEK-Blue IL-15, and 1 hour for IFN-alpha). Assay plates were then removed from the incubator and the optical density of each well was measured at 600 nm on a GloMax plate reader. Relative activation of the cytokine signaling pathway in question was determined by ratioing the optical density of each sample to the average optical density for the cytokine-only treated cells from the same plate.

[1] = tested on: CD3/CD28 (TransAct) activated PBMCs; experiment: PBMC cytokine release by Cytometric BeadArray, Inhibition format (peptide with anti-CD3/CD28 T-cell activator); format: cell-based, human; set-up: key to Inhibition by Analyte: IL-1b / Inhibition by Analyte: IL-2 / Inhibition by Analyte: TNF / Inhibition by Analyte: IP-10 / Inhibition by Analyte: IL-10: X = a hit with significant activation or inhibition of relevant cytokine release; conditions: peptide applied with anti-CD3/CD28 T-cell activator, 24 hours, supernatant CBA
Protocol: Peripheral Blood Mononuclear Cells were seeded+/−the T-cell activator […] and +/−peptides for 24-48 hours. Cytokines were measured from the supernatant after incubation by CBA Cytometer.
Thawing PBMCs: PBMCs were thawed by pre-warming TexMACS media (Miltenyi Biotech) in 20 ml aliquots-1-50 ml conical per donor. After the media was warmed to 37° C., cells were removed from liquid nitrogen and brought to the tissue culture hood. For each donor, 1 ml of media from the warmed aliquot was added to the frozen vial and mixed up and down. The media plus thawed cells were then added back to the 50 ml conical. This was repeated until all the cells were thawed and added to the 50 ml tube. Continue with other donors if used. Spin cells for 5 min at 400×g. Supernatant was aspirated and cells resuspended at ˜10*10^6 cells/ml (see vial for cell number).
PBMC Plating: Frozen PBMCs from normal, healthy, human volunteers (StemCell Technologies) were thawed and plated at 250,000 cells/well. After PBMCs were thawed and resuspended at […], cells were then counted (Countess III, Thermo Scientific) and adjusted based on counts to […]. Take the number of PBMCs determined by number of wells for the experiment, for example, 10 wells would need 2.5*10^6 cells total or 0.250 ml. The cells needed for the experiment are then transferred to another conical tube. Warmed TexMACS media is added so that the final concentration is 250,000 cells/190 ul media, for example, 10 wells would need 1.9 ml (190 ul×10 wells) of media total minus 0.250 ml of cells (1.9 ml-0.250 ml) or 1.65 ml of media added to the 0.250 ml of cells. Add 190 ul of cells plus media to the 96 well U-bottom plate. Place in incubator until dilutions are made and ready.
Peptide Dilutions: Ideally, all peptides should be at a starting concentration of at least 10 mM, especially for those in DMSO (ATCC) to reach a final concentration of 1 uM (H2O) or 0.5 uM (DMSO). Dilutions of all test articles should be made at 20× the final concentration, for example, a final concentration of 1 uM peptide would need to be made at 20 uM.
Reagent Dilution: Dilutions are made in TexMACS media, enough for 10 ul/well in triplicate (30 ul of a 20×). Activator—CD3/CD28 (TransAct; Miltenyi Biotech) or cytokine will be at 21× and added after the 45-minute incubation with peptides. Be sure to include relevant controls—Positive: TransAct+Cells, Negative: Vehicle+Cells. Dilutions should also be made in a ultra-low binding plate (Corning).
Assay Procedure: Peptide Treatment: Start assay by thawing the cells and plating in a 96 well, U-bottom tissue culture plate (Corning) as described above. Cell plates are placed in a tissue culture incubator (5% CO2, 37° C.). While cells are in the incubator, start making dilutions (optimally 1 hr or less) as described above. Cell plates are removed from the incubator and 10 ul of the 20× dilutions are added to the relevant wells. After the addition of inhibitors, cell plates are placed in the tissue culture incubator for 45 minutes. The plates are removed from the incubator and 10 ul of 21× TransAct is added to the relevant wells*. Plates are then returned to the incubator and incubated for 24 hours. After 24 hours, plates are spun for 5 minutes at 400×g.
* Activation: This assay can be run in two different formats—Activation and Inhibition. The procedure is the same except no TransAct is needed in the peptide wells for Activation. TransAct is only needed in the control wells. The purpose of this procedure is to determine the possible response from peptides alone.
Cytometric BeadArray (CBA): After the spin, supernatants (˜150 ul) are transferred to a new, ultra-low binding U-bottom plate. Supernatants are then frozen at −20° C. until thawed for CBA (BD) to determine levels of human IL-2, TNFα, IL-1b, IP-10, IL-10, and IFNg. CBA was run according to the manufacturers protocol.

[2] = tested on: primary human CD8+ T cells; experiment: T cell activation markers in isolated CD8+ T cells +/- CD3/CD28 (ELISA, CD69 flow cytometry); format: cell-based
Protocol: To determine the effect of the Target Protein on T cell activity, the Target Protein, irrelevant proteins, a single amino acid mutant Target Protein and controls were applied to primary human T cells isolated from Peripheral Blood Mononuclear Cells (PBMCs)+/−CD3/CD28. 24 hours later the levels of extra-cellular CD69, IL-2, and TNFalpha (72 hours for IFN-gamma) were evaluated.
Isolation of PBMCfrom Leukopak: The isolation of peripheral blood mononuclear cells (PBMC) from a leukopak sample was conducted using the EasySep™ Direct Human PBMC Isolation Kit (Cat #19654, StemCell Technologies, Vancouver, BC, Canada) following the manufacturer's instructions. A leukopak sample was prepared within a volume range of 125 mL and added to a T-75 cm2 cell culture flask. EDTA was added to the sample to achieve a final concentration of 6 mM. The Isolation Cocktail provided in the kit was added to the sample without vortexing, and the sample was mixed and incubated at room temperature (RT) for 5 minutes. EasySep buffer was added to double the original sample volume, followed by the addition of vortexed RapidSpheres™. The flask was placed into a magnet and incubated at RT for 5 minutes. The cell suspension was carefully pipetted into a new T-75 cm2 flask, and RapidSpheres™ were added to the enriched cells. The flask was placed back into the magnet for a second separation at RT for 5 minutes. Finally, the cell suspension was carefully pipetted into a new tube or centrifuge bottle, and the isolated PBMCs were ready for use.
Isolation of primary human T-cells: Following the isolation of PBMCs, CD8^+ T cells were isolated using the EasySep™ Human CD8^+ T Cell Isolation Kit (Cat #17953, StemCell Technologies, Vancouver, BC, Canada) according to the manufacturer's instructions. The PBMC sample was prepared at a concentration of […] within a volume range of 2 mL and added to a 5 mL polystyrene round-bottom tube. The Isolation Cocktail provided in the kit (50 μL/mL of sample) was added to the sample without vortexing, mixed, and incubated at RT for 5 minutes. RapidSpheres™ were vortexed for 30 seconds to ensure even dispersion and then added to the sample at a concentration of 50 μL/mL of sample. The EasySep buffer was added to top up the sample to a total volume of 2.5 mL, and the sample was mixed by gently pipetting up and down 2-3 times. The tube (without lid) was placed into the magnet and incubated at RT for 3 minutes. After incubation, the magnet was picked up, and in one continuous motion, the magnet and tube were inverted, pouring the enriched cell suspension into a new tube. The isolated CD8^+ T cells were now ready for use.
Peptide treatment: Isolated CD8^+ T cells were plated in a 96-well format plate at a density of 1×10^5 cells per well. […]

[3] = CD8+ T cells, 10 μM, CD3/CD28, 24 hours, ELISA

## SEQ ID NO: 4227: novel peptide capable of inhibiting pro-inflammatory cytokine pathways (LAVFVIIRNLSDYLSFFFPFLLELLAVEEHHAYL; listed as Homo sapiens)
IL-4 signaling pathway; FIG. 9
  inhibitor of the IL-4 signaling pathway (grade in words): moderate
IL-4 signaling pathway; peptide 5 uM, cytokine at EC75, SEAP OD 600 nm
  Relative activity (compared to cytokine only controls), Cytokine IL-4: −50%

## SEQ ID NO: 4524: novel, secreted peptide that enhances T cell activation (LDFIRAFLLLLVASVPGKIGSQNLTAQRPPVATSFLQMESSEPTVRK; listed as Homo sapiens)
[1]
  Inhibition by Analyte: IL-1b: X
  Inhibition by Analyte: IL-2: X
  Inhibition by Analyte: IP-10: X
  Inhibition by Analyte: TNF: X
[2]; 10 μM vs scrambled protein, with CD3/CD28 antibody cocktail, 24 hours
  T cell activation markers in CD8+ T cells (TNFα, IL-2, CD69): increases
[2]; [3]
  T-cell activation marker IL-2: significantly up-regulates
  T-cell activation marker TNFalpha: significantly up-regulates
[2]; CD8+ T cells, 10 μM, CD3/CD28, 24 hours, flow cytometry
  T-cell activation marker CD69: significantly up-regulates
